Columns and labels:
mononuclear leukocytes = assay: AcP-IgAN model: leukocyte infiltration in the kidney (IF/IHC); assay type: in vivo, B cell-deficient mice; conditions: AcP-IgAN mice
Experimental: (§1) B cell-deficient mice (B6.129S2-Igh-6tm1Cgn/J) were obtained from the Academia Sinica (Professor John T. Kung, Institute of Molecular Biology), and maintained at the animal center of the National Defense Medical Center, Taipei, Taiwan. AcP-IgAN was induced in the mice by daily injection of purified IgA anti-phosphorylcholine antibodies and pneumococcal C-polysaccharide (PnC) as described previously (Chao, et al., Kidney Int. 70:283-297; 2006). All animal experiments were performed with the approval of the Institutional Animal Care and Use Committee of The National Defense Medical Center, Taiwan, and were consistent with the NIH Guide for the Care and Use of Laboratory Animals.
For IHC, formalin fixed and paraffin embedded tissue sections or frozen sections were incubated with against IL-6 (R&D Systems, MN), MCP-1 (Santa Cruz, Calif.), F4/80 (monocytes/macrophages; Serotec, N.C.), collagen IV (Southern Biotech, AL), TGF-β1 (Santa Cruz), phopsho-NFκB p65 (Cell Signaling, MA), CD3 (pan-T cell; Serotec), CD4 (T helper cell; BioLegend, CA), CD8 (cytotoxic T cell), CD11b (macrophages/neutrophils), or CD11c (dendritic cells) (BD Biosciences, CA) antibodies. The FITC-conjugated, Alexa Fluor 488-conjugated (Invitrogen, CA) or horseradish peroxidase (HRP) conjugated secondary antibodies (DAKO, Denmark) were then applied to the sections. […]

superoxide anion = assay: FSGS model: superoxide anion / ROS determination (lucigenin, DHE); assay type: in vivo, BALB/c mice; conditions: FSGS mice
Experimental: (§2) Experiments described herein were performed on 8-week-old female BALB/c mice. The FSGS mice were injected intravenously with a single dose of adriamycin (0.1 mg/10 g body weight). The mice were given Compound 1 six hours before adriamycin injection by gavage daily till sacrifice. BALB/c mice intraperitoneal injected with normal saline were used as normal controls, while ASLN mice given vehicle (corn oil) by gavage were used as disease controls. Mice were killed at day 7, 14, or 21 after disease induction, and spleen, renal cortical tissue, and blood samples collected and stored appropriately until analysis. All animal experiments were performed with the ethical approval of the Institutional Animal Care and Use Committee of The National Defense Medical Center, Taiwan and performed according to the ethical rules in the NIH Guide for the Care and Use of Laboratory Animals.
(§3) Kidney in-situ superoxide anion production was determined by DHE labeling according to the known method. (Wu, et al., Nephrol Dial Transplant, 2008, 23: 3082-3090, or Ka, et al., J. Am. Soc. Nephrol. 2007, 18:2473-2485) Fluorescent images were quantified by counting the percentage of positive nuclei in the total nuclei per kidney cross section. Sera and kidney tissues were assessed for superoxide anion according to the known method. (Wu, et al., J Pineal Res, 2001, 30: 147-156, or Ka, et al., J. Am. Soc. Nephrol. 2007, 18:2473-2485) For ROS levels of serum, urine, and renal tissue, the samples were incubated with Krebs-HEPES buffer, and lucigenin (Sigma-Aldrich Chemical Co, MO) at 1.25 mM was used as substrate. Luminescence counts were obtained in duplicate at 15 sec intervals by a microplate luminometer (Hidex Microplate Luminometer, Finland), as previously described (Kretzler, et al.,. Virchows Arch, 425: 181-193, 1994). The superoxide anion activity was expressed as relative luminescence units (RLU) per 15 min per mg of organ dry weight (i.e., RUL/15 min/mg) or RLU/15 min/ml.

ROS = assay: AcP-IgAN model: ROS levels; assay type: in vivo, B cell-deficient mice; conditions: AcP-IgAN mice
Experimental: as §3, §1

IL-1beta = assay: AcP-IgAN model: renal IL-1beta mRNA; assay type: in vivo, B cell-deficient mice
Experimental: as §1
Total cortical kidney RNA was extracted with TriZOL reagents (Invitrogen) from cortical tissue of the kidney. For first-strand cDNA synthesis, 1.5 μg of total RNA was used in a single-round reverse transcriptase reaction. The reaction mixture consisted of 0.9 μl of Oligo (dT) 12 to 18 primer, 1.0 mM deoxyribonucleotide triphosphate (dNTP), 1 μl first strand buffer, 0.4 mM dithiothreitol, 80 U of RNaseout recombinant ribonuclease inhibitor, and 300 U of superscript II RNase H (Invitrogen). Real-time PCR was performed on an ABI Prism 7700 Sequence Detection System (Applied Biosystems, CA). All of the probes and primers were Assays-on-Demand Gene expression products (Applied Biosystems). […]

NO = assay: FSGS model: NO determination; assay type: in vivo, BALB/c mice; conditions: FSGS mice
Experimental: as §2
NO levels in serum were detected with NO Detection kit (iNtRON Biotechnology, Seongnam, Korea), based on diazotization (Griess method), according to the manufacturer's instructions.

splenocytes = assay: AcP-IgAN model: flow cytometry of T cell activation in splenocytes; assay type: in vivo, B cell-deficient mice; conditions: AcP-IgAN mice
Experimental: as §1
Splenocytes from the mice were treated with Tris-buffered ammonium chloride to eliminate erythrocytes, washed, resuspended in RPMI 1640 supplemented with 10% fetal calf serum, HEPES buffer, L-glutamine, and penicillin/streptomycin (all from Invitrogen). The cells were stained with either surface marker for T or B cell activation. FITC-conjugated anti-mouse CD3, CD4, CD8, or CD19 (B cell) antibodies and phycoerythrin (PE)-conjugated anti-mouse CD69 antibodies (all from BD Biosciences) were analyzed with FACSCalibur (BD Biosciences).

IL-18 = assay: AcP-IgAN model: serum IL-18 ELISA; assay type: in vivo, B cell-deficient mice; conditions: AcP-IgAN mice, day 28, vs control AcP-IgAN mice
Experimental: as §1
Serum levels of IL-1β (eBiosceience, CA), IL-6 (eBiosceience), IL-18 (MBL, Japan), and MCP-1 (eBiosceience) were measured using commercial ELISA kits according to the manufacturer's instructions.

[1] = day 7 to day 21, vs control FSGS mice
[2] = day 3, vs control AcP-IgAN mice
[3] = day 28, vs control AcP-IgAN mice

COC1=C(OC)[C@H](O)[C@H](C/C=C(\C)CC/C=C(\C)CCC=C(C)C)[C@@H](C)C1=O [Compound 1, Antroquinonol]
infiltration of pan-T cells, neutrophils and monocytes/macrophages in the kidney (mononuclear leukocytes; day 3): no detectable signals | infiltration of inflammatory cells (CD3^+, CD4^+, CD8^+, CD11c+, F4/80+, CD11b+) in the kidney (mononuclear leukocytes; day 28, vs AcP-IgAN mice): significantly decreased infiltration | superoxide anion levels in urine (superoxide anion; [1]): significantly lowered | serum superoxide anion levels (superoxide anion; day 7 to day 21, vs control FSGS mice, to a level similar to normal control): effectively attenuated | in-situ ROS production in renal tissue (DHE fluorescence) (superoxide anion; day 14 and day 21): only very low DHE fluorescence | superoxide anion levels in the kidney (superoxide anion; day 14 and day 21, vs control FSGS mice, to a level similar to normal control): effectively attenuated | ROS levels in sera (ROS; [2]): substantial reduction | ROS levels in renal tissues (ROS; [3]): substantial reduction | ROS levels in sera (ROS; [3]): substantial reduction | ROS levels in urine (ROS; [3]): substantial reduction | renal mRNA levels of IL-1beta (elevation) (IL-1beta; AcP-IgAN mice, day 28, vs control AcP-IgAN mice): significantly inhibited | renal IL-1beta mRNA expression (IL-1beta; all mice, day 3): no detectable increase | urine levels of NO (NO; day 7, among normal control, FSGS+vehicle and FSGS+antroq mice): no detectable difference | serum NO levels (NO; [1]): significantly suppressed | urine NO levels (NO; day 14 to day 21, vs control FSGS mice): effectively blunted | percentage of CD3^+/CD69^+ T cells in splenocytes (splenocytes; [2]): significant reduction | percentage of CD4^+/CD69^+ T cells in splenocytes (splenocytes; [2]): no significant difference | percentage of CD8^+/CD69^+ T cells in splenocytes (splenocytes; [2]): no significant difference | percentage of each of the three subtypes of T cells (CD3^+/CD69^+, CD4^+/CD69^+, CD8^+/CD69^+) (splenocytes; day 28): no different from that of normal controls | serum IL-18 levels (IL-18): substantial inhibition

Reference: patent publication US10406120B2, “Methods and compositions for treating kidney disorders” (Golden Biotechnology Corporation, priority 2013, dated 2019)
